Assay results: PMC6286779, “HLA-A2-Restricted Epitopes Identified from MTA1 Could Elicit Antigen-Specific Cytotoxic T Lymphocyte Response” (Journal of Immunology Research, 2018)

Assays:
HLA-A*0201 molecules = HLA-A*0201 molecules (Homo sapiens, UniProt P04439, D140Y/D185E/D98H/E176V/E277Q/G131W/G231S/I119V/I121R/I166T/I218V/L300P/L318F/N151K/N90K/P208A/P217A/Q86G/Q94H/R138H/R169H/T345S); assay: T2 binding assay; conditions: T2 cells 1 × 10^6 cells/ml, peptide 50 μg/ml, 3 μg/ml β2-M, serum-free RPMI 1640, 18 h, 37°C; BB7.2 staining, flow cytometry; FI > 1.5 = high affinity
Description: The binding affinity of these peptides to HLA-A^∗0201 was evaluated according to our previous study. Briefly, T2 cells (1 × 10^6 cells/ml) were incubated with each peptide (50 μg/ml) and 3 μg/ml human β2-microglobulin (β2-M, Merck, Germany) in serum-free RPMI 1640 medium for 18 h at 37°C in a humidified atmosphere of 5% CO2. Then cells were washed twice and incubated with the anti-human HLA-A2 PE-Cyanine7 mAb, BB7.2 (eBioscience, USA) for 0.5 h at 4°C. Finally, cells were collected, washed, and analyzed using flow cytometry (FACSCalibur, Becton Dickinson, USA). The fluorescence index (FI) calculation was performed as follows: FI = [(mean fluorescence intensity (MFI) of the given peptide − background) − (MFI of the PBS control group − background)]/[(MFI of the PBS control group − background)]. The MFI value of cells untreated with peptides and antibodies was employed as background. Peptides with an FI factor of more than 1.5 were classed as high-affinity candidates.

[1] = tested on: SW620 cells (HLA-A2+, MTA1+); assay: LDH cytotoxicity assay, CTLs induced in HLA-A2.1/Kb transgenic mice; format: in vivo, human; conditions: HLA-A2.1/Kb transgenic mice, 100 μg peptide + 140 μg T helper epitope in IFA s.c. days 0, 5, 10; splenocytes restimulated 6 days; E/T 50 : 1; n = 5
Description: In vivo induction of peptide-specific CTLs was performed as previously described. Briefly, peptide (100 μg) and the IA^b-restricted HBV-core128 T helper epitope (140 μg) emulsified in incomplete Freund's adjuvant (IFA) were used to subcutaneously immunize at the base of the tail of HLA-A2.1/K^b transgenic mice three times on days 0, 5, and 10. On day 11, all mice were sacrificed through cervical dislocation. Spleen lymphocytes were isolated and restimulated once with 10 μg/ml peptide and 10 U/ml mIL-2 in vitro for an additional 6 days. LDH and IFN-γ ELISPOT assays were performed on day 6 after in vitro stimulation. […]
To test the effects of protein, each HLA-A2.1/K^b transgenic mouse was injected subcutaneously at the base of the tail with 100 μg MTA1(1–283) or the same volume of PBS emulsified in IFA twice on days 0 and 7. On day 14, spleen lymphocytes were harvested and stimulated by peptide pool (10 μg/ml) in vitro for another 6 days. LDH, IFN-γ ELISPOT, and IFN-γ intracellular cytokine staining assays were performed on day 6 after the in vitro stimulation. E/T ratios used in the LDH assay were 12.5 : 1, 25 : 1, and 50 : 1.
Cytotoxic activity of induced T cells was tested based on the quantitation of LDH release using the nonradioactive cytotoxicity assay kit (Promega, USA) at the gradient E/T ratio [29, 31]. Target cells which expressed different levels of MTA1 or peptide-pulsed T2 cells were used as target cells. The anti-human HLA-A2 antibody (BB7.2) was added 30 min before adding effector cells to determine the HLA restriction. Target cells (5 × 10^3/well) were cocultured with the effector cells at 37°C for 4 h. The percentage of specific lysis of the target cells was determined using the equation: percentage of specific lysis = [(experimental release − effector spontaneous release − target spontaneous release)/(target maximum release − target spontaneous release)] × 100.

FI (fluorescence index) (HLA-A*0201 molecules)	Sequence	lysis rate of SW620 cells, CTLs induced in vivo [1] [%]
2.08	YLIRRIEEL [Peptide P22]	37.29
1.28	TLLNETESL [Peptide P129]	51.81
